{"source": "patent US10905783B2", "about": "“Glucosamine and derivatives thereof in imaging” (priority 2015, dated 2021)", "key": {"[1]": {"settings": "cited from earlier work"}, "4T1 tumor": {"tested_on": "4T1 tumor", "experiment": "In vivo CEST MRI of 4T1 breast tumors in mice", "design": "species or system mouse", "method": "4T1 mouse mammary tumor cell lines were obtained from ATCC. Cells were cultured in high glucose DMEM supplemented 5% FBS, 5% NCS, NEAA and antibiotics (100 units/ml penicillin and 100 μg/ml streptomycin) at 37° C. in a humidified atmosphere containing 5% CO2.\nBALB/C female mice were purchased and kept in the breeding facility of Life Science School, Tel Aviv University. To induce orthotropic xenograph tumors in the mice. 4T1 cells were injected into the lower left mammary gland of 8-week-old (17-22 gram) animals (10^6 cells in 100 μL saline). The tumors were allowed to grow for 10-14 days, reaching an average tumor volume of 5 mm^3. All experiments with animal models were carried out in compliance with the principles of the National Research Council (NRC) and were approved by the institutional animal care and use committee (IACUC) (#M-15-057).\nA Bruker 7 Tesla (T) Biospec scanner with 30 cm bore size was used to scan implanted xenograph mammary tumors of mice before and after administration (i.v., i.p. or p.o.) of glucosamine or its derivatives (the glucose analogues were dissolved in saline, pH 7.4). 4T1 or MCF7 tumor-bearing mice, with an average tumor volume of 2-7 mm^3, were fasted overnight with water access, anesthetized with isoflurane (1-2%) and scanned (without surface coil). Their temperature was maintained at 37° C.\nAt first, T2 RARE anatomical images (RARE factor-8, TR-3000 ms, TE-11.7 ms) were acquired to identify the slice selection with maximum tumor size. The CEST images were generated as follows: a series of T2 RARE images (RARE factor-1, TR-3000 ms, TE-11.7 ms) were collected from a single 1 mm coronal slice of the abdominal area (acquisition matrix before zero filling 128×64, field of view of 40×40 mm^2) after a 2 s presaturation pulse of B1=2.5 μT (106 Hz) at the hydroxyl proton frequency offset of ±1.2 ppm from the water signal. The CEST images were acquired before and after glucosamine or its derivatives administration in order to identify the baseline. The acquisition continued for more than an hour after treatment.\nThe mean intensities in the selected region of interest (ROI) of the tumor were used for the % CEST plot."}, "[2]": {"tested_on": "TSA and B16 cancer models", "settings": "cited from earlier work"}}, "data": [{"compound": "O=CC[C@@H](O)[C@H](O)[C@H](O)CO", "note": "[2-DG, 2-deoxy-D-glucose]", "values": [{"measurement": "toxic dose", "setting": "[1]; rats", "result": 3000, "unit": "mg/kg"}]}, {"compound": "O=C[C@H](O)[C@@H](O)[C@H](O)[C@H](O)CO", "note": "[D-glucose]", "values": [{"measurement": "time after administration at which the CEST signal decreased dramatically", "setting": "4T1 tumor; D-glucose 1000 mg/kg per os, same animal as glucosamine", "result": "30 to 40", "unit": "min"}, {"measurement": "duration of the CEST signal", "setting": "4T1 tumor; PO, 4T1 model", "result": "less than an hour"}, {"measurement": "CEST signal", "setting": "4T1 tumor; oral doses of less than 1 g/kg", "result": "no significant CEST signal"}, {"measurement": "CEST signal 60 minutes after administering", "setting": "4T1 tumor; same animal, glucosamine at half the dosage of D-glucose", "result": "no CEST signal was observed"}]}, {"compound": "O=C[C@H](F)[C@@H](O)[C@H](O)[C@H](O)CO", "note": "[FDG, 2-fluoro-deoxy-D-glucose]", "values": [{"measurement": "toxicity", "setting": "[1]; high concentrations", "result": "toxic at high concentrations"}]}, {"compound": "CC(=O)N[C@H]1C(O)O[C@H](CO)[C@@H](O)[C@@H]1O", "note": "(stereo partly drawn) [N-Acetyl-D-glucosamine]", "values": [{"measurement": "CEST contrast", "setting": "[2]", "result": "increase CEST contrast"}]}]}
